# Test results from ChEMBL document CHEMBL1130930, “In vitro anti-human immunodeficiency virus (HIV) activity of the chromanone derivative, 12-oxocalanolide A, a novel NNRTI” (Bioorg Med Chem Lett, 1998).
# Activity calls are given as the source filed them. No cut-off for these calls is given here.
# Assays:
# [1] = Therapeutic index against HIV-1 strain IIIB in CEM-SS cells was expressed as IC50/EC50; format: cell-based, Human immunodeficiency virus 1; conditions: for TI: human immunodeficiency virus 1, cem-ss
# [2] = test system: Human immunodeficiency virus 1; test: Compound was evaluated for the antiviral activity against compound resistant virus isolate M184I with amino acid changes in the HIV-1 reverse transcriptase (RT); format: functional, organism-based
# CEM-SS [3] = test: Compound was evaluated for the antiviral activity against SIV delta in CEM-SS cells; format: functional, cell-based, Homo sapiens
# U-937 = test: (§1) Compound was evaluated for the anti-HIV activity against HIV strain IIIB in U937 monocytic cell; format: functional, cell-based; conditions: Homo sapiens
# Homo sapiens [4] = organism: Homo sapiens; test: Compound was evaluated for the anti-HIV activity against HIV strain ADA in monocyte macrophages; format: functional, organism-based
# CEM-SS [5] = test: (§2) Compound was evaluated for the antiviral activity against HIV-1 strain IIIB in CEM-SS cells; format: functional, cell-based, Homo sapiens
# [6] = test system: Human immunodeficiency virus 1; test: Compound was evaluated for the antiviral activity against resistant virus isolate IIIB with amino acid changes in the HIV-1 reverse transcriptase (RT); format: functional, organism-based
# [7] = test system: Human immunodeficiency virus 1; test: Compound was evaluated for the antiviral activity against compound resistant virus isolate K101E with amino acid changes in the HIV-1 reverse transcriptase (RT); format: functional, organism-based
# [8] = Compound was evaluated for the anti-HIV activity against HIV strain BaL in monocyte; format: functional; conditions: Homo sapiens
# CEM-SS [9] = test: Compound was evaluated for the anti-HIV activity against HIV strain IIIB in CEM-SS Value was expressed as EC50; format: functional, cell-based; conditions: Homo sapiens
# [10] = test system: Human immunodeficiency virus 1; test: Compound was evaluated for the antiviral activity against compound resistant virus isolate 4 x AZT with amino acid changes in the HIV-1 reverse transcriptase (RT); format: functional, organism-based
# CEM-SS [11] = test: Compound was evaluated for the antiviral activity against HIV-2 strain ROD in CEM-SS cells; format: functional, Homo sapiens
# [12] = test system: Human immunodeficiency virus 1; test: Compound was evaluated for the antiviral activity against compound resistant virus isolate Y181C with amino acid changes in the HIV-1 reverse transcriptase (RT); format: functional, organism-based
# [13] = Therapeutic index against SIV delta in CEM-SS cells was expressed as IC50/EC50; format: cell-based; conditions: simian immunodeficiency virus; for TI: cem-ss
# [14] = Therapeutic index against HIV-1 strain SK1 in CEM-SS cells was expressed as IC50/EC50; format: cell-based, Human immunodeficiency virus 1; conditions: for TI: human immunodeficiency virus 1, cem-ss; for selectivity ratio: human immunodeficiency virus 1, CEM-SS cells infected with HIV-1 strain SK1, read-out: TI
# Homo sapiens [15] = organism: Homo sapiens; test: Compound was evaluated for the anti-HIV activity against HIV strain ROJO in fresh peripheral blood mononuclear cell (PBMC); format: functional, organism-based
# CEM-SS [16] = test: Compound was evaluated for the antiviral activity against HIV-1 strain RF in CEM-SS cells; format: functional, cell-based, Homo sapiens
# AA5 = test: (§3) Compound was evaluated for the anti-HIV activity against HIV strain IIIB in AA5 EBV-infected B-cell; format: functional, cell-based; conditions: Homo sapiens
# CEM-SS [17] = test: Compound was evaluated for the antiviral activity against HIV-1 strain SK1 in CEM-SS cells; format: functional, cell-based, Homo sapiens
# [18] = test system: Human immunodeficiency virus 1; test: Compound was evaluated for the antiviral activity against compound resistant virus isolate P236L with amino acid changes in the HIV-1 reverse transcriptase (RT); format: functional, organism-based
# Homo sapiens [19] = organism: Homo sapiens; test: Compound was evaluated for the anti-HIV activity against HIV strain TEKI in fresh peripheral blood mononuclear cell (PBMC). Value was expressed as EC50; format: functional, organism-based
# [20] = test system: Human immunodeficiency virus 1; test: Compound was evaluated for the antiviral activity against compound resistant virus isolate K103N with amino acid changes in the HIV-1 reverse transcriptase (RT); format: functional, organism-based
# MT2 = test: Compound was evaluated for the anti-HIV activity against HIV strain IIIB in MT2 T-cells; format: functional, cell-based, Homo sapiens
# [21] = Therapeutic index against HIV-1 strain RF in CEM-SS cells was expressed as IC50/EC50; format: organism-based, Human immunodeficiency virus 1; conditions: for TI: human immunodeficiency virus 1, cem-ss
# CCRF-CEM [22] = test: Compound was evaluated for the anti-HIV activity against HIV strain SK1 in CEM-SS T-cells; format: functional, cell-based, Homo sapiens
# Homo sapiens [23] = organism: Homo sapiens; test: Compound was evaluated for the anti-HIV activity against HIV strain BaL in monocyte macrophages; format: functional, organism-based
# CCRF-CEM [24] = test: Compound was evaluated for the anti-HIV activity against HIV strain IIIB in 174 x CEM T-cell:B-cell fusion; format: functional, cell-based; conditions: Homo sapiens
# [25] = as §1; format: functional, cell-based; conditions: Homo sapiens, U-937
# [26] = test system: Human immunodeficiency virus 1; test: Compound was evaluated for the antiviral activity against compound resistant virus isolate Y188H with amino acid changes in the HIV-1 reverse transcriptase (RT); format: functional, organism-based
# [27] = test system: Human immunodeficiency virus 1; test: Compound was evaluated for the antiviral activity against compound resistant virus isolate V1081 with amino acid changes in the HIV-1 reverse transcriptase (RT); format: functional, organism-based
# B-cell = test: as §3; format: functional, cell-based; conditions: Homo sapiens
# [28] = test system: Human immunodeficiency virus 1; test: Compound was evaluated for the antiviral activity against compound resistant virus isolate T1391 with amino acid changes in the HIV-1 reverse transcriptase (RT); format: functional, organism-based
# [29] = test system: Human immunodeficiency virus 1; test: Compound was evaluated for the antiviral activity against compound resistant virus isolate Y181C/K103N with amino acid changes in the HIV-1 reverse transcriptase (RT); format: functional, organism-based
# [30] = Therapeutic index against HIV-2 strain ROD in CEM-SS cells was expressed as IC50/EC50; format: organism-based; conditions: human immunodeficiency virus 2, CEM-SS cells infected with HIV-2 strain ROD; read-out: TI
# Homo sapiens [31] = organism: Homo sapiens; test: Compound was evaluated for the anti-HIV activity against HIV strain TEKI in fresh peripheral blood mononuclear cell (PBMC); format: functional, organism-based
# CCRF-CEM [32] = test: Compound was evaluated for the anti-HIV activity against HIV strain IIIB in CEM-SS T-cells; format: functional, cell-based; conditions: Homo sapiens
# [33] = test system: Human immunodeficiency virus 1; test: Compound was evaluated for the antiviral activity against compound resistant virus isolate L100I with amino acid changes in the HIV-1 reverse transcriptase (RT); format: functional, organism-based
# CEM-SS [34] = test: Compound was evaluated for the antiviral activity against HIV-1 strain SK1 in CEM-SS cells; IA: Inactive; format: functional, cell-based; conditions: Homo sapiens
# CEM-SS [35] = test: as §2; format: functional; conditions: Homo sapiens
# [36] = test system: Human immunodeficiency virus 1; test: Compound was evaluated for the antiviral activity against compound resistant virus isolate K103E with amino acid changes in the HIV-1 reverse transcriptase (RT)
smiles,measurement,setting,value
CCCc1cc(=O)oc2c3c(c4c(c12)OC(C)(C)C=C4)O[C@H](C)[C@@H](C)C3=O (racemic),TI,[1],11
same,EC50,[2],530 nM
same,IC50,CEM-SS [3]; cem-ss,6600 nM
same,EC50,U-937,3000 nM
same,EC50,Homo sapiens [4],330 nM
same,EC50,CEM-SS [5]; cem-ss,510 nM
same,IC50,CEM-SS [5]; cem-ss,5600 nM
same,EC50,[6],320 nM
same,EC50,[7],> 100000 nM
same,EC50,[8],510 nM
same,EC50,CEM-SS [9],520 nM
same,EC50,[10],3600 nM
same,EC25,CEM-SS [11],5570 nM
same,IC25,CEM-SS [11],13800 nM
same,EC50,[12],590 nM
same,TI,[13],5
same,TI,[14],37
same,EC50,Homo sapiens [15],2180 nM
same,EC50,CEM-SS [16]; cem-ss,400 nM
same,IC50,CEM-SS [16]; cem-ss,5800 nM
same,EC50,AA5,2800 nM
same,IC50,CEM-SS [17]; cem-ss,6300 nM
same,EC50,[18],2030 nM
same,EC50,Homo sapiens [19],> 10000 nM
same,EC50,[20],> 100000 nM
same,EC50,MT2,560 nM
same,TI,[21],14
same,EC50,CCRF-CEM [22],270 nM
CCCc1cc(=O)oc2c3c(c4c(c12)OC(C)(C)C=C4)O[C@H](C)[C@@H](C)C3=O (stereo in doubt; (+)-2),TI,[1],> 10
same,EC50,Homo sapiens [23],2190 nM
same,EC50,[2],60500 nM
same,EC50,CCRF-CEM [24],> 10000 nM
same,EC50,CEM-SS [3]; cem-ss,1660 nM
same,EC50,[25],> 10000 nM
same,EC50,Homo sapiens [4],1760 nM
same,EC50,CEM-SS [5]; cem-ss,1000 nM
same,EC50,[26],> 100000 nM
same,EC50,[6],1470 nM
same,EC50,[7],26400 nM
same,EC50,[27],> 100000 nM
same,EC50,[10]; Human immunodeficiency virus 1,2730 nM
same,EC25,CEM-SS [11],15900 nM
same,IC25,CEM-SS [11],34800 nM
same,EC50,[12],2100 nM
same,TI,[13],6
same,TI,[14],> 58
same,EC50,Homo sapiens [15]; Homo sapiens,2660 nM
same,EC50,CEM-SS [16]; cem-ss,900 nM
same,EC50,B-cell,> 10000 nM
same,EC50,[28],> 100000 nM
same,EC50,CEM-SS [17]; cem-ss,170 nM
same,EC50,[18],6760 nM
same,EC50,[29],6190 nM
same,selectivity ratio,[30],2
same,EC50,Homo sapiens [31],> 10000 nM
same,EC50,[20],30600 nM
same,EC50,CCRF-CEM [32],1090 nM
same,EC50,[33],> 100000 nM
same,EC50,MT2,2620 nM
same,TI,[21],> 11
same,EC50,CCRF-CEM [22],620 nM
CCCc1cc(=O)oc2c3c(c4c(c12)OC(C)(C)C=C4)O[C@H](C)[C@@H](C)C3=O (stereo in doubt; (-)-2),TI,[1],> 5
same,IC50,"CEM-SS [3]; Homo sapiens, CEM-SS",> 10000 nM
same,EC50,CEM-SS [3]; cem-ss,6120 nM
same,IC50,"CEM-SS [5]; Homo sapiens, CEM-SS",> 10000 nM
same,EC50,CEM-SS [5]; cem-ss,1880 nM
same,TI,[13],2
same,selectivity ratio,[14],> 37
same,IC50,"CEM-SS [16]; Homo sapiens, CEM-SS",> 10000 nM
same,EC50,CEM-SS [16]; cem-ss,3410 nM
same,EC50,"CEM-SS [17]; Homo sapiens, CEM-SS",270 nM
same,IC50,"CEM-SS [17]; Homo sapiens, CEM-SS",> 10000 nM
same,TI,[21],> 3
CCCc1cc(=O)oc2c3c(c4c(c12)OC(C)(C)C=C4)O[C@H](C)[C@@H](C)[C@@H]3O [CALANOLIDE A],EC50,"CEM-SS [5]; Homo sapiens, CEM-SS",140 nM
same,EC50,CEM-SS [16]; cem-ss,170 nM
same,EC25,CEM-SS [34],inactive
Nc1ccn([C@H]2CC[C@@H](CO)O2)c(=O)n1 [ZALCITABINE],selectivity ratio,"[1]; human immunodeficiency virus 1, CEM-SS cells infected with HIV-1 strain IIIB, read-out: TI",> 250
same,EC50,"CEM-SS [3]; Homo sapiens, CEM-SS",190 nM
same,IC50,"CEM-SS [3]; Homo sapiens, CEM-SS",> 5000 nM
same,EC50,"CEM-SS [5]; Homo sapiens, CEM-SS",20 nM
same,EC25,"CEM-SS [11]; Homo sapiens, CEM-SS, read-out: EC25",30 nM
same,IC25,"CEM-SS [11]; Homo sapiens, CEM-SS, read-out: IC25",> 10000 nM
same,selectivity ratio,"[13]; CEM-SS cells infected with SIV delta, read-out: TI",> 26
same,EC25,CEM-SS [35],> 5000 nM
same,selectivity ratio,[14],> 100
same,EC50,"CEM-SS [16]; Homo sapiens, CEM-SS",50 nM
same,IC50,"CEM-SS [16]; Homo sapiens, CEM-SS",> 5000 nM
same,EC50,"CEM-SS [17]; Homo sapiens, CEM-SS",50 nM
same,IC50,"CEM-SS [17]; Homo sapiens, CEM-SS",> 5000 nM
same,selectivity ratio,[30],> 333
same,selectivity ratio,"[21]; human immunodeficiency virus 1, CEM-SS cells infected with HIV-1 strain RF, read-out: TI",> 100
Cc1cn([C@H]2C[C@H](N=[N+]=[N-])[C@@H](CO)O2)c(=O)[nH]c1=O [ZIDOVUDINE],EC50,[2]; Human immunodeficiency virus 1,10 nM
same,EC50,[26],< 3 nM
same,EC50,[6]; Human immunodeficiency virus 1,9 nM
same,EC50,[10]; Human immunodeficiency virus 1,> 1000 nM
same,EC50,[12]; Human immunodeficiency virus 1,6 nM
same,EC50,[36],4 nM
same,EC50,[28],40 nM
same,EC50,[29],< 30 nM
same,EC50,[33],< 3 nM
